Measurements: a compilation of properties of binary mixtures (doi:10.1021/jp403813g)

Experiment: xn = mol fraction of the nth substance listed
Conditions: 100 kPa

CS(C)=O + CCCC[n+]1ccn(C)c1.[Cl-]
Conditions	speed of sound [m/s]
313.15 K, x2 = 0	1442

CCCC[n+]1ccn(C)c1.[Cl-] + CS(C)=O
313.15 K
Conditions	speed of sound [m/s]
x1 = 0.0341	1491
x1 = 0.1122	1569
x1 = 0.2433	1650
x1 = 0.3032	1674
x1 = 0.3705	1696
x1 = 0.4746	1732
x1 = 0.5997	1773
x1 = 0.7115	1794
x1 = 0.843	1816
x1 = 0.9445	1829

CS(C)=O + CC[n+]1ccn(C)c1.[Cl-]
x2 = 0
Conditions	speed of sound [m/s]
298.15 K	1496
303.15 K	1472

CC[n+]1ccn(C)c1.[Cl-] + CS(C)=O
speed of sound [m/s]
Conditions	298.15 K	303.15 K	308.15 K	313.15 K
x1 = 0.0194	–	–	1473	1455
x1 = 0.0453	1517	–	1485	–
x1 = 0.0677	1532	1509	1498	1480
x1 = 0.0984	1551	1527	1516	–
x1 = 0.1236	1563	1539	1527	1508
x1 = 0.1619	1582	1560	1547	1528
x1 = 0.2143	–	1583	1571	1550
x1 = 0.2927	–	–	–	1586
x1 = 0.3737	1675	1652	1638	1618
x1 = 0.4429	1701	1678	1665	1645
x1 = 0.5264	1730	1709	1694	1675
x1 = 0.6072	–	1736	1723	1705
x1 = 0.7477	–	1787	1776	1758
x1 = 0.7986	1828	1812	1801	1783
x1 = 0.8501	–	1833	1822	1804
x1 = 0.8944	1869	1855	1843	1826
x1 = 0.9396	1893	1880	1869	1854
x1 = 0.9694	1910	1894	1883	1868
x1 = 1	1935	1923	1918	1894
x2 = 0.0071	1929	1914	1903	1887
